Results as given in patent US20100146643A1, “RAPID IN VIVO MODEL FOR ANGIOGENESIS” (ANTICANCER, INC, priority 2006, published 2010).

Columns and labels:
[1] = test system: XPA-1-RFP human pancreatic cancer; settings: liver metastasis of XPA-1-RFP, ND-GFP transgenic nude mice; cited from earlier work
[2] = test system: MIA PaCa-2 human pancreatic cancer; settings: orthotopically transplanted MIA PaCa-2-RFP, ND-GFP transgenic nude mice; cited from earlier work
[3] = test system: nascent blood vessels in bFGF-containing Gelfoam; test: Gelfoam subcutaneous implant angiogenesis model in ND-GFP transgenic nude mice; format: in vivo, mouse
Procedure: Transgenic C57/B6 nude mice that produce green fluorescent protein (GFP) in endothelial cells were used. These transgenic mice (6-8 weeks old) were anesthetized with tribromoethanol. Gelfoam® (Pharmacia & Upjohn company, Kalamazoo, Mich.) blocks (5×5 mm) were either treated with 300 ng basic fibroblast growth factor (bFGF) (Chemicon, Temecula, Calif.) in 75 μl RPMI 1640 medium (Cellgro, Herndon, Va.) or not treated. The Gelfoam® blocks were transplanted into the subcutis on both flanks of the transgenic mice, a treated block on one flank and an untreated block on the other. One group of mice was given daily ip injections of 5 μg/g of doxorubicin and another group was given 0.9% NaCl solution (vehicle control) at days 0, 1, and 2 after transplantation of Gelfoam®. Skin flaps were made at day 7 under anesthesia. Angiogenesis was quantified by measuring the length of fluorescent nascent blood vessels in the skin flap by in vivo fluorescence microscopy imaging.
A Leica fluorescence stereo microscope model LZ12 equipped with a mercury lamp and a 50-W power supply was used. Selective excitation of GFP was produced through a D425/60 band-pass filter and a 470 DCXR dichroic mirror. Emitted fluorescence was collected through a long-pass filter (GG475; Chroma Technology, Brattleboro, Vt.) on a Hamamatsu C5810 3-chip cooled color charge-coupled device camera (Hamamatsu Photonics, Bridgewater, N.J.). Images were processed for contrast and brightness and analyzed with the use of IMAGE PRO PLUS 3.1 software (Media Cybernetics, Silver Spring, Md.). High-resolution images of 1024×724 pixels were captured directly on an IBM PC or continuously through video output on a high-resolution Sony VCR (model SLVR1000; Sony, Tokyo).
The experimental data are expressed as the mean ±SD. Statistical analysis was performed using the two-tailed Student's t test.

[4] = test system: B16F10-RFP murine melanoma; settings: ND-GFP mice transplanted with B16F10-RFP; cited from earlier work
[5] = Gelfoam containing 300 ng bFGF, mice given 0.9% NaCl, day 7

## Nc1ccn([C@@H]2O[C@H](CO)[C@@H](O)C2(F)F)c(=O)n1 [Gemcitabine]
[1]
  mean nascent blood vessel density in the liver metastases: significantly decreased
[2]
  mean nascent blood vessel density in the tumor: significantly decreased
  tumor volume: decreased tumor volume

## COc1cccc2c1C(=O)c1c(O)c3c(c(O)c1C2=O)C[C@@](O)(C(=O)CO)C[C@@H]3O[C@H]1C[C@H](N)[C@H](O)[C@H](C)O1 [doxorubicin]
[3]; doxorubicin 5 μg/g ip at days 0, 1, 2, day 7, compared with untreated Gelfoam in NaCl-treated mice
  extent of angiogenesis (mean nascent blood vessel length, FIG. 4) in bFGF-treated Gelfoam: reduced below that of untreated Gelfoam® in the sodium chloride treated mice
[3]; doxorubicin 5 μg/g ip at days 0, 1, 2, skin flap at day 7, Gelfoam with 300 ng bFGF
  neovasculature in the bFGF-treated foam (FIG. 2c): greatly diminished neovasculature
[3]; doxorubicin 5 μg/g ip at days 0, 1, 2, skin flap at day 7, Gelfoam without bFGF
  angiogenesis in the foam not containing bFGF (FIG. 2d): no observable angiogenesis
[4]
  nascent tumor angiogenesis: inhibit nascent tumor angiogenesis
  tumor growth: inhibit

## bFGF: basic fibroblast growth factor (Chemicon), growth factor loaded in Gelfoam to encourage angiogenesis
[3]; [5]
  mean nascent blood vessel length: ~6 mm/mm^2
  neovasculature formed in the bFGF-containing Gelfoam patch (FIG. 2a): a large complex of neovasculature is formed
